The test system of test [1] is A-431. As to the kind of experiment: Potency index, ratio of temozolomide IC50 to compound IC50 for human A431 Cells. The test is classed as functional.
Test [2] concerns A-431. As to the kind of experiment: Antiproliferative activity in human A431 Cells after 72 hrs by SRB assay. The note with it: A-431, 72 h. The class given is functional, cell-based. Background: The SRB assay estimates cell density from bound dye.
The target of test [3] is Proto-oncogene tyrosine-protein kinase Src (Homo sapiens, UniProt P12931). Kind of test: Inhibition of Src kinase (unknown origin).
The target in test [4] is Epidermal growth factor receptor (Homo sapiens, UniProt P00533). As to the kind of experiment: Inhibition of human A431 cells derived EGFR by ELISA. A general note: An ELISA detects its analyte on a solid surface through an enzyme-linked reagent.

Each structure is given as a SMILES string.

Sequence of Proto-oncogene tyrosine-protein kinase Src (P12931 2-536 limits assumed): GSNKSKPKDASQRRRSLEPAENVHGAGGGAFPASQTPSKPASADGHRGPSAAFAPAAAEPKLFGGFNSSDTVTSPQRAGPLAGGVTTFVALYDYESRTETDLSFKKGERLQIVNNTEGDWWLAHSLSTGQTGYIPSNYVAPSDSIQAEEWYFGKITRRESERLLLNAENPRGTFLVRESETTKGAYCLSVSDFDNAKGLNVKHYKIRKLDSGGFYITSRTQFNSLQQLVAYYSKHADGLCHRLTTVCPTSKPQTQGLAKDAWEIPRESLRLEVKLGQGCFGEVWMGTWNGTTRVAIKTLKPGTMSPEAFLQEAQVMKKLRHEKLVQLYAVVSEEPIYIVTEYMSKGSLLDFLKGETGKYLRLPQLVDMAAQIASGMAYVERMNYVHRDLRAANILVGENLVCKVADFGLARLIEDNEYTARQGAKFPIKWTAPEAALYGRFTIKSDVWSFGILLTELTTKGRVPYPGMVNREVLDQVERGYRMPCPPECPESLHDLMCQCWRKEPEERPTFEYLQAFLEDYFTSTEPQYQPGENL
Sequence of Epidermal growth factor receptor (P00533 whole entry): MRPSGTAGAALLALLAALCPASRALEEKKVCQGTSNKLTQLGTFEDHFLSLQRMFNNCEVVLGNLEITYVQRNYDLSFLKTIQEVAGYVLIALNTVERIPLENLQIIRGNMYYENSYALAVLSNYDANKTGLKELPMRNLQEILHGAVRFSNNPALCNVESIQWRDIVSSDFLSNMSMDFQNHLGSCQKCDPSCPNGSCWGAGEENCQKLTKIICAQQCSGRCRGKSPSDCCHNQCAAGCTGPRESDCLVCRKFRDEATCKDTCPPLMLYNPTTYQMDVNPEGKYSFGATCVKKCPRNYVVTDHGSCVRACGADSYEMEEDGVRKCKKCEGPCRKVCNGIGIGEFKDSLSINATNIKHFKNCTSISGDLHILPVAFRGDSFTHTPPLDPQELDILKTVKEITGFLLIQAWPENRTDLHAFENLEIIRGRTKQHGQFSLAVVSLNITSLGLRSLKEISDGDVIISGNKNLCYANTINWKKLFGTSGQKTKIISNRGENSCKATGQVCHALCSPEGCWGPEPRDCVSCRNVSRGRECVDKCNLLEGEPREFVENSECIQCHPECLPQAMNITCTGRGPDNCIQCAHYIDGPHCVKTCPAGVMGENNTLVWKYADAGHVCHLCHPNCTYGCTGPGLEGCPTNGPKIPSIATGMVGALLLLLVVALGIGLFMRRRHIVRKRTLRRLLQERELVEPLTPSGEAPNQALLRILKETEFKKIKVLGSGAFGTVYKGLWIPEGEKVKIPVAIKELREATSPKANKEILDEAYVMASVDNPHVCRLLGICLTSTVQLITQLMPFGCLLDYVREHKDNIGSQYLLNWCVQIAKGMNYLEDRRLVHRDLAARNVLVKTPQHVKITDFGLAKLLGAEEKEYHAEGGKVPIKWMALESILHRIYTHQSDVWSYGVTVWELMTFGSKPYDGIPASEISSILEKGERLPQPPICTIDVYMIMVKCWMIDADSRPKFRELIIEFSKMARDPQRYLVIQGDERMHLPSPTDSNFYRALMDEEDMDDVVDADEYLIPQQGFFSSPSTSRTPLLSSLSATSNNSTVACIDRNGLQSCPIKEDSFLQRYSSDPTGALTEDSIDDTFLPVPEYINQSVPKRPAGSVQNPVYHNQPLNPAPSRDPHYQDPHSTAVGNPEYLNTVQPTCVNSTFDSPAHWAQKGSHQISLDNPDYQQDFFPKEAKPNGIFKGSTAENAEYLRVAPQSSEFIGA

For the compound `C/N=N/Nc1ccc2ncnc(Nc3cccc(C)c3)c2c1`, the “Ratio IC50” value in the test with A-431 [1] was 10. In the test on A-431 [2], this compound showed a 50% inhibitory concentration (IC50) of 36 µM.
Consider `Cc1cccc(Nc2ncnc3ccc(N)cc23)c1`, for which the half-maximal inhibitory concentration (IC50) in the test with A-431 [2] amounted to 59 µM.
As for `CN(CCN(C)Cc1ccc(C(=O)Nc2ccc3ncnc(Nc4cccc(Cl)c4)c3c2)cc1)CCn1nc(-c2ccc(Cl)cc2)c2c(N)ncnc21`, the results for the IC50 in test [3] and in test [4] were 2.9 µM and 0.32 µM, respectively.

In general, IC50 refers to the concentration at which inhibition is half-maximal.

The record behind these values is ChEMBL document CHEMBL4138087, “Designing multi-targeted agents: An emerging anticancer drug discovery paradigm” (Eur J Med Chem, 2017).
